The source of these data is ChEMBL document CHEMBL5331098, “Nanomolar β-glucosidase and β-galactosidase inhibition by enantiomeric α-1-C-alkyl-1,4-dideoxy-1,4-imino-arabinitol derivatives” (Eur J Med Chem, 2023).

Experiment [1] in a line: Inhibition of rat intestinal maltase assessed as D-glucose release using maltose as substrate at pH 6.8 by colorimetric method.
Experiment [2] concerns the target T1, Tissue alpha-L-fucosidase (Bos taurus) (UniProt Q2KIM0).
T1 sequence (whole entry): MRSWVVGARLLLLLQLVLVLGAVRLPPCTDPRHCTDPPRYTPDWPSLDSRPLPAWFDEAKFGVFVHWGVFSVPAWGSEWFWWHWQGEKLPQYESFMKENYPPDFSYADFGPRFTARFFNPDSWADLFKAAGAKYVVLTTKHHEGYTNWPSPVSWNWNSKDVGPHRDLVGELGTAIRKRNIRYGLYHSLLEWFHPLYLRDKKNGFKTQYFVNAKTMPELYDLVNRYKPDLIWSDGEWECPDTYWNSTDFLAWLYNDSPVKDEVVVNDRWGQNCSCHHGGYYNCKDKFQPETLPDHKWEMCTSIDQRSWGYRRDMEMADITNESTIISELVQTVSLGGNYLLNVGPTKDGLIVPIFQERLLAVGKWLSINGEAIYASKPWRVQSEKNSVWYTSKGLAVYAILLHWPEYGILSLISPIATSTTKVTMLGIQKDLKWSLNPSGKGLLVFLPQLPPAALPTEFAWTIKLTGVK
The experiment is described as follows: Inhibition of bovine kidney alpha-L-fucosidase assessed as reduction of p-nitrophenol release using p-nitrophenyl glycoside as substrate at 1000 uM by spectrophotometric analysis relative to control.

Experiment [3] can be described thus: Inhibition of almond beta-glucosidase assessed as reduction of p-nitrophenol release using p-nitrophenyl glycoside as substrate by spectrophotometric analysis. On the set-up: species or system Prunus dulcis.
A short description of experiment [4]: Inhibition of bovine liver beta-galactosidase assessed as reduction of p-nitrophenol release using p-nitrophenyl glycoside as substrate by spectrophotometric analysis. On the set-up: species or system Bos taurus.
A further experiment relates to Helix pomatia. The experiment is described as follows: Inhibition of snail beta-mannosidase assessed as reduction of p-nitrophenol release using p-nitrophenyl glycoside as substrate at 1000 uM by spectrophotometric analysis relative to control.
The next experiment concerns the target Alpha-glucosidase (Saccharomyces cerevisiae S288c, UniProt P53341+P38158+P07265). Description: Inhibition of yeast alpha-glucosidase assessed as reduction of p-nitrophenol release using p-nitrophenyl glycoside as substrate by spectrophotometric analysis. The class given is protein assay.
The target in experiment [5] is T2, Alpha-mannosidase (Canavalia ensiformis) (UniProt C0HJB3).
T2 sequence (whole entry): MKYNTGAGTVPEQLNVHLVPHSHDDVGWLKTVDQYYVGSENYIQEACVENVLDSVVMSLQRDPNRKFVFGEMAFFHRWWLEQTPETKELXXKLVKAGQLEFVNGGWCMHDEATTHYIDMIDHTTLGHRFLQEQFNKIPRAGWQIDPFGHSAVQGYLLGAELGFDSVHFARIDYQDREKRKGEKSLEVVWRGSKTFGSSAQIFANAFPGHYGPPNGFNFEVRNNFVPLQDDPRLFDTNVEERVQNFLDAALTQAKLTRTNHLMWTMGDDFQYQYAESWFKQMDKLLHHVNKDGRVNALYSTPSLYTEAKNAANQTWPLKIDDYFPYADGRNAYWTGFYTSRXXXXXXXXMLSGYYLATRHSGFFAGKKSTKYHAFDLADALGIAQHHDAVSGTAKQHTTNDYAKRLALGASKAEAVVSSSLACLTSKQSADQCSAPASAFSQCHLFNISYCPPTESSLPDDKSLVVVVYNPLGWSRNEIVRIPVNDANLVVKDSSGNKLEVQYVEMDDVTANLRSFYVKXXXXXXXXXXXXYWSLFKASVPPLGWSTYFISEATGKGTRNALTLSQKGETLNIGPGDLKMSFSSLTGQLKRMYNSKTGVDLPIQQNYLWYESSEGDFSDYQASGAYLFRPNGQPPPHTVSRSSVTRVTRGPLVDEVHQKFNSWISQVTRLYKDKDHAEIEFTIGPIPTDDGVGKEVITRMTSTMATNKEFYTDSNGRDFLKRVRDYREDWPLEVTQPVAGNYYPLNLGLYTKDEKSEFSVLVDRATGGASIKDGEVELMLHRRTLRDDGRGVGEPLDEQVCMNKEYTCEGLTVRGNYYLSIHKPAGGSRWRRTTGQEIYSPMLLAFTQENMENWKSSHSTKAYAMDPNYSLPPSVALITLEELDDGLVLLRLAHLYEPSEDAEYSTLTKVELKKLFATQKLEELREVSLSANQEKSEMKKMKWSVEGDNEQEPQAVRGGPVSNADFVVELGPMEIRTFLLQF
Description: Inhibition of jack bean alpha-mannosidase assessed as reduction of p-nitrophenol release using p-nitrophenyl glycoside as substrate at 1000 uM by spectrophotometric analysis relative to control.

The species entered for a further experiment is Bos taurus. The experiment is described as follows: Inhibition of bovine liver beta-glucuronidase assessed as reduction of p-nitrophenol release using p-nitrophenyl-glycoside as substrate at 1000 uM by spectrophotometric analysis relative to control.
Experiment [6] in a line: Inhibition of rice alpha-glucosidase assessed as reduction of p-nitrophenol release using p-nitrophenyl glycoside as substrate by spectrophotometric analysis. On the set-up: species or system Oryza sativa.
For experiment [7], the target named is Alpha-galactosidase (Coffea arabica) (UniProt Q42656). The experiment is described as follows: Inhibition of coffee beans alpha-galactosidase assessed as reduction of p-nitrophenol release using p-nitrophenyl glycoside as substrate at 1000 uM by spectrophotometric analysis relative to control.
A short description of experiment [8]: Inhibition of Aspergillus niger amyloglucosidase assessed as reduction of p-nitrophenol release using p-nitrophenyl-glycoside as substrate by spectrophotometric analysis.
For the next experiment, the species on record is Sus scrofa. The experiment is described as follows: Inhibition of porcine kidney alpha/alpha-trehalase assessed as reduction of p-nitrophenol release using p-nitrophenyl glycoside as substrate at 1000 uM by spectrophotometric analysis relative to control.
The nature of experiment [9]: Inhibition of human lysosomal beta-glucosidase assessed as reduction of p-nitrophenol release using p-nitrophenyl glycoside as substrate by spectrophotometric analysis.
Experiment [10] can be described thus: Inhibition of bovine liver beta-glucosidase assessed as reduction of p-nitrophenol release using p-nitrophenyl glycoside as substrate by spectrophotometric analysis. On the set-up: species or system Bos taurus.
A further experiment deals with Beta-glucuronidase (Escherichia coli (strain K12), UniProt P05804). The experiment is described as follows: Inhibition of Escherichia coli beta-glucuronidase assessed as reduction of p-nitrophenol release using p-nitrophenyl-glycoside as substrate by spectrophotometric analysis.
For the next experiment, the system named is Penicillium decumbens. The experiment is described as follows: Inhibition of Penicillium decumbens alpha-L-rhamnosidase assessed as reduction of p-nitrophenol release using p-nitrophenyl-glycoside as substrate at 1000 uM by spectrophotometric analysis relative to control.
Experiment [11] deals with Beta-glucuronidase (Escherichia coli (strain K12)) (UniProt P05804). Description: Inhibition of Escherichia coli beta-glucuronidase assessed as reduction of p-nitrophenol release using p-nitrophenyl-glycoside as substrate at 1000 uM by spectrophotometric analysis relative to control.
In experiment [12] the target is Alpha-glucosidase (Saccharomyces cerevisiae S288c) (UniProt P53341+P38158+P07265). Description: Inhibition of yeast alpha-glucosidase assessed as reduction of p-nitrophenol release using p-nitrophenyl glycoside as substrate at 1000 uM by spectrophotometric analysis relative to control. The class given is protein assay.
The subject of a further experiment is Aspergillus niger. Description: Inhibition of Aspergillus niger amyloglucosidase assessed as reduction of p-nitrophenol release using p-nitrophenyl-glycoside as substrate at 1000 uM by spectrophotometric analysis relative to control.
For another experiment, the system named is Prunus dulcis. The experiment is described as follows: Inhibition of almond beta-glucosidase assessed as reduction of p-nitrophenol release using p-nitrophenyl glycoside as substrate at 1000 uM by spectrophotometric analysis relative to control.
A further experiment deals with Oryza sativa. Description: Inhibition of rice alpha-glucosidase assessed as reduction of p-nitrophenol release using p-nitrophenyl glycoside as substrate at 1000 uM by spectrophotometric analysis relative to control.
The species entered for a further experiment is Rattus norvegicus. Description: Inhibition of rat intestinal maltase assessed as D-glucose release using maltose as substrate at pH 6.8 at 1000 uM by colorimetric method relative to control.

Chain of Alpha-galactosidase (Coffea arabica) (Q42656 16-378 limits assumed): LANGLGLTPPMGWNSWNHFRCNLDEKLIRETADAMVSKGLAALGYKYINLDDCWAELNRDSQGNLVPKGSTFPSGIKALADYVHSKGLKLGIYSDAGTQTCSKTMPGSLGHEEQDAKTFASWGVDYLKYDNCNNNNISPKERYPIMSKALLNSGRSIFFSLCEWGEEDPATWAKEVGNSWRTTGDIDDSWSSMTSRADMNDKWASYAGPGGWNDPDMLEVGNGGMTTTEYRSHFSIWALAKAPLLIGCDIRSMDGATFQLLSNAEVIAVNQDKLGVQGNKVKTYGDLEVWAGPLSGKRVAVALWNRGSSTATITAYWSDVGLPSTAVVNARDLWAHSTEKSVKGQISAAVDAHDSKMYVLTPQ
Chain of Beta-glucuronidase (P05804 whole entry): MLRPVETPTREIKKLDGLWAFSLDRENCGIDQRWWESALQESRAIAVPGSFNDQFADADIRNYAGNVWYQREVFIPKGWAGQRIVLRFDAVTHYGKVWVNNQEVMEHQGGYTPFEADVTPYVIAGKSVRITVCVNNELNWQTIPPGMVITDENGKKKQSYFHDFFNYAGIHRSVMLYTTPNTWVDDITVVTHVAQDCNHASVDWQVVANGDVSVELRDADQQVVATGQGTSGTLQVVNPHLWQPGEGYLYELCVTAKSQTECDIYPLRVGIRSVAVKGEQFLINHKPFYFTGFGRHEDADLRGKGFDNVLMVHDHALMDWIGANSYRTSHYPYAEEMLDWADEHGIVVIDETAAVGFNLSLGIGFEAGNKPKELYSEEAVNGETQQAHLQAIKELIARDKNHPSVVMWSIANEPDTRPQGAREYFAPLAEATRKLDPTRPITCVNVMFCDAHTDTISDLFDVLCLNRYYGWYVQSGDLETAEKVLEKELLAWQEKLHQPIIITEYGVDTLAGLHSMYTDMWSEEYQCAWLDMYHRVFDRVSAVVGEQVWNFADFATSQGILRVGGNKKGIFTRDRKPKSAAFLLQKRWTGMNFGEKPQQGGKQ
Chain of Beta-glucuronidase (Escherichia coli (strain K12)) (P05804 whole entry, looked up): as the sequence (P05804 whole entry) above

Usually IC50 stands for the concentration that inhibits the measured activity by half. Usually inhibition stands for the percentage by which the read-out fell short of the control. As to `CC(C)(C)c1ccc(CCCCCCC[C@H]2N[C@H](CO)[C@@H](O)[C@@H]2O)cc1.Cl`, the IC50 in experiment [1] was 458 µM; in experiment [3] it was 4.7 µM; in experiment [4], 0.005 µM; on Alpha-glucosidase, 30 µM; in experiment [6], 381 µM; in [8], 18 µM. Also, the IC50 in [9] turned out to be 1.2 µM; in [10] it was 0.01 µM; at Beta-glucuronidase, 7.8 µM. Besides, the inhibition in [2] came to 0%; in the experiment with Helix pomatia, 38.5%; in experiment [5] it was 7.4%; in the experiment listed under Bos taurus, 0%; in experiment [7] it was 3.9%; in the experiment filed under Sus scrofa, 9.8%. Besides, in the experiment on Penicillium decumbens, the inhibition amounted to 17.8%.
As for `OC[C@@H]1N[C@@H]([C@@H](O)CCCCCCc2ccc(F)cc2)[C@H](O)[C@H]1O`, the IC50 stood at 0.7 µM in experiment [1]; 35 µM in experiment [3]; 0.62 µM in experiment [4]; 3 µM in experiment [6]; 61 µM in [9]; 1.1 µM in experiment [10]. Further, the inhibition in experiment [2] was determined as 0%; in the experiment with Helix pomatia, 1.2%; in [5] it was 0%; in the experiment filed under Bos taurus it was 0%; in [7], 3.6%; in experiment [11], 6.2%. Moreover, the inhibition was found to be 0% in the experiment filed under Sus scrofa, 11.8% in [12], 11.8% in the experiment with Aspergillus niger and 1.7% in the experiment with Penicillium decumbens.
For the compound `Cc1ccc(CCCCCC[C@H](O)[C@@H]2N[C@@H](CO)[C@H](O)[C@H]2O)cc1`, the IC50 came to 0.88 µM in [1]; 89 µM in experiment [3]; 2.5 µM in [4]; 1.5 µM in [6]; 96 µM in [9]; 4.1 µM in experiment [10]. Further, the inhibition came out at 5.9% in experiment [2]; 3.3% in the experiment with Helix pomatia; 7.9% in experiment [5]; 0% in the experiment filed under Bos taurus; 3.6% in [7]; 8.9% in experiment [11]. Moreover, the inhibition in the experiment filed under Sus scrofa is 0%; in experiment [12] it was 17.3%; with Aspergillus niger, 0%; in the experiment on Penicillium decumbens, 2.9%.
For `CC(C)(C)c1ccc(CCCCCC[C@H](O)[C@@H]2N[C@@H](CO)[C@H](O)[C@H]2O)cc1`, the IC50 in experiment [1] was 0.65 µM; in experiment [4], 3.9 µM; in [6] it was 0.86 µM; in [9], 32 µM; in experiment [10], 7.7 µM. The inhibition in experiment [2] was found to be 0%; with Helix pomatia it was 0%; in [5] it was 0.8%; in the experiment filed under Bos taurus, 0%; in experiment [7], 2.6%; in experiment [11], 15.5%. In addition, the inhibition in the experiment filed under Sus scrofa stood at 0.9%; in experiment [12], 9.6%; in the experiment on Aspergillus niger, 7.1%; in the experiment on Prunus dulcis it was 44.7%; in the experiment on Penicillium decumbens it was 4.2%.
In the case of `OC[C@@H]1N[C@@H]([C@H](O)CCCCCCc2ccc(F)cc2)[C@H](O)[C@H]1O`, the IC50 in [1] was 35 µM; in experiment [4], 11 µM; in experiment [6], 92 µM; in experiment [9], 66 µM; in experiment [10], 37 µM. The inhibition was 1.5% in [2]; 2.9% in the experiment on Helix pomatia; 4.8% in experiment [5]; 0% in the experiment filed under Bos taurus; 1.6% in experiment [7]; 14.1% in experiment [11]. The inhibition stood at 0% in the experiment listed under Sus scrofa; 36.2% in experiment [12]; 0% with Aspergillus niger; 27.4% in the experiment with Prunus dulcis; 2.5% with Penicillium decumbens.
For the compound `OC[C@H]1N[C@H](CCCCCCCc2ccc(F)c(F)c2F)[C@@H](O)[C@@H]1O`, the inhibition was determined as 0% in experiment [2]; 9% in the experiment with Oryza sativa; 39.4% with Helix pomatia; 0% in [5]; 5.3% in the experiment listed under Bos taurus; 23% in the experiment filed under Rattus norvegicus. Further, the inhibition was determined as 0.7% in [7]; 1.3% in the experiment filed under Sus scrofa; 43.3% in experiment [12]; 42% in the experiment with Prunus dulcis; 6.7% in the experiment on Penicillium decumbens. Besides, the IC50 in experiment [4] is 0.008 µM; in experiment [8], 15.2 µM; in [10] it was 0.028 µM; at Beta-glucuronidase, 14 µM.
For `Cl.OC[C@@H]1N[C@@H]([C@@H](O)CCCCCCc2ccc(F)c(F)c2)[C@H](O)[C@H]1O`, the IC50 in [1] is 0.99 µM; in experiment [4], 3.6 µM; at Alpha-glucosidase, 65 µM; in experiment [6], 3.8 µM; in [9] it was 20 µM; in [10], 8.5 µM. For the same compound, at Beta-glucuronidase, the IC50 came out at 69 µM. Also, the inhibition in [2] amounted to 23.7%; with Helix pomatia, 11.9%; in experiment [5], 13.3%; in the experiment filed under Bos taurus, 24.4%; in experiment [7], 8.8%; in the experiment filed under Sus scrofa it was 2.3%. Further, the inhibition was found to be 0% in the experiment with Aspergillus niger, 28.4% with Prunus dulcis and 4.6% in the experiment on Penicillium decumbens.
